Data: PubChem BioAssay AID1963836 (Molecular Pharmacology Branch, DTP, NCI, 2024)

Test system: 857933-349-R-J2-PDC complex spheroid viability
Assay: Anticancer human tumor 857933-349-R-J2-PDC patient-derived colon adenocarcinoma cell line growth inhibition [POLQ]
Details: for IC50: curve of first compound; for viability, T/C: stronger effect = lower value
Procedure, shortened: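 PDC + HUVEC + MSC complex spheroids; POLQ inhibitors ± partner drugs; top conc. at/near clinical Cmax, else 10 microM (SN-38 1 microM), half-log dilutions; 37 degrees C, 5% CO2.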

[1] = second compound 0.0316 µM, first compound 0.0316 µM
[2] = second compound 0.0316 µM, first compound 0.1 µM
[3] = second compound 0.0316 µM, first compound 0.316 µM
[4] = second compound 0.0316 µM, first compound 1 µM
[5] = second compound 0.0316 µM, first compound 3.16 µM
[6] = second compound 0.0316 µM, first compound 10 µM
[7] = second compound 0.1 µM, first compound 0.0316 µM
[8] = second compound 0.1 µM, first compound 0.1 µM
[9] = second compound 0.1 µM, first compound 0.316 µM
[10] = second compound 0.1 µM, first compound 1 µM
[11] = second compound 0.1 µM, first compound 3.16 µM
[12] = second compound 0.1 µM, first compound 10 µM
[13] = second compound 0.316 µM, first compound 0.0316 µM
[14] = second compound 0.316 µM, first compound 0.1 µM
[15] = second compound 0.316 µM, first compound 0.316 µM
[16] = second compound 0.316 µM, first compound 1 µM
[17] = second compound 0.316 µM, first compound 3.16 µM
[18] = second compound 0.316 µM, first compound 10 µM
[19] = second compound 1 µM, first compound 0.0316 µM
[20] = second compound 1 µM, first compound 0.1 µM
[21] = second compound 1 µM, first compound 0.316 µM
[22] = second compound 1 µM, first compound 1 µM
[23] = second compound 1 µM, first compound 3.16 µM
[24] = second compound 1 µM, first compound 10 µM
[25] = second compound 3.16 µM, first compound 0.0316 µM
[26] = second compound 3.16 µM, first compound 0.1 µM
[27] = second compound 3.16 µM, first compound 0.316 µM
[28] = second compound 3.16 µM, first compound 1 µM
[29] = second compound 3.16 µM, first compound 3.16 µM
[30] = second compound 3.16 µM, first compound 10 µM
[31] = second compound 10 µM, first compound 0.0316 µM
[32] = second compound 10 µM, first compound 0.1 µM
[33] = second compound 10 µM, first compound 0.316 µM
[34] = second compound 10 µM, first compound 1 µM
[35] = second compound 10 µM, first compound 3.16 µM
[36] = second compound 10 µM, first compound 10 µM
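Also: spheroids exposed to compounds for seven days before readout.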

## C#Cc1c(F)ccc2cc(O)cc(-c3ncc4c(N5CC6CCC(C5)N6)nc(OCC56CCCN5CC(F)C6)nc4c3F)c12 (stereo unspecified) + Nc1ccc(C#CCN(C(=O)Cc2ncc(C(F)(F)F)cc2C(F)(F)F)c2ccc(F)cc2)nn1
Second compound 0.0316 µM
  IC50: > 10 µM
Second compound 0.1 µM
  IC50: > 10 µM
Second compound 0.316 µM
  IC50: > 10 µM
Second compound 1 µM
  IC50: > 10 µM
Second compound 3.16 µM
  IC50: > 10 µM
Second compound 10 µM
  IC50: > 10 µM
[1]
  viability, T/C: 84.4%
[2]
  viability, T/C: 99.5%
[3]
  viability, T/C: 82.7%
[4]
  viability, T/C: 80.8%
[5]
  viability, T/C: 78.2%
[6]
  viability, T/C: 73.1%
[7]
  viability, T/C: 101%
[8]
  viability, T/C: 101%
[9]
  viability, T/C: 86.8%
[10]
  viability, T/C: 87.1%
[11]
  viability, T/C: 84%
[12]
  viability, T/C: 80.7%
[13]
  viability, T/C: 95.3%
[14]
  viability, T/C: 92.4%
[15]
  viability, T/C: 79%
[16]
  viability, T/C: 73%
[17]
  viability, T/C: 93.8%
[18]
  viability, T/C: 75.5%
[19]
  viability, T/C: 104%
[20]
  viability, T/C: 100%
[21]
  viability, T/C: 79.5%
[22]
  viability, T/C: 79.7%
[23]
  viability, T/C: 86.8%
[24]
  viability, T/C: 70.6%
[25]
  viability, T/C: 101%
[26]
  viability, T/C: 86.8%
[27]
  viability, T/C: 82.7%
[28]
  viability, T/C: 76.7%
[29]
  viability, T/C: 107%
[30]
  viability, T/C: 68.6%
[31]
  viability, T/C: 87%
[32]
  viability, T/C: 76.8%
[33]
  viability, T/C: 87%
[34]
  viability, T/C: 73.9%
[35]
  viability, T/C: 76.3%
[36]
  viability, T/C: 69%

## C=CC(=O)N1CCN(c2nc(=O)n(-c3c(C)ccnc3C(C)C)c3nc(-c4c(O)cccc4F)c(F)cc23)C(C)C1 (stereo unspecified) + Nc1ccc(C#CCN(C(=O)Cc2ncc(C(F)(F)F)cc2C(F)(F)F)c2ccc(F)cc2)nn1
Second compound 0.0316 µM
  IC50: > 10 µM
Second compound 0.1 µM
  IC50: > 10 µM
Second compound 0.316 µM
  IC50: > 10 µM
Second compound 1 µM
  IC50: > 10 µM
Second compound 3.16 µM
  IC50: > 10 µM
Second compound 10 µM
  IC50: > 10 µM
[1]
  viability, T/C: 90.6%
[2]
  viability, T/C: 101%
[3]
  viability, T/C: 113%
[4]
  viability, T/C: 98.6%
[5]
  viability, T/C: 113%
[6]
  viability, T/C: 87.6%
[7]
  viability, T/C: 99.3%
[8]
  viability, T/C: 90.7%
[9]
  viability, T/C: 105%
[10]
  viability, T/C: 100%
[11]
  viability, T/C: 98.9%
[12]
  viability, T/C: 95.5%
[13]
  viability, T/C: 107%
[14]
  viability, T/C: 98.5%
[15]
  viability, T/C: 98.3%
[16]
  viability, T/C: 112%
[17]
  viability, T/C: 93.1%
[18]
  viability, T/C: 83.5%
[19]
  viability, T/C: 111%
[20]
  viability, T/C: 107%
[21]
  viability, T/C: 97.6%
[22]
  viability, T/C: 100%
[23]
  viability, T/C: 110%
[24]
  viability, T/C: 97.2%
[25]
  viability, T/C: 103%
[26]
  viability, T/C: 88.8%
[27]
  viability, T/C: 96.4%
[28]
  viability, T/C: 101%
[29]
  viability, T/C: 108%
[30]
  viability, T/C: 98.5%
[31]
  viability, T/C: 81.2%
[32]
  viability, T/C: 101%
[33]
  viability, T/C: 98.9%
[34]
  viability, T/C: 92.6%
[35]
  viability, T/C: 112%
[36]
  viability, T/C: 95.3%

## CC1COCCN1c1cc(C2(O)CC3CCC(C2)O3)c2cnn(-c3ccn[nH]3)c2n1 (stereo unspecified) + Nc1ccc(C#CCN(C(=O)Cc2ncc(C(F)(F)F)cc2C(F)(F)F)c2ccc(F)cc2)nn1
Second compound 0.0316 µM
  IC50: 0.863 µM
Second compound 0.1 µM
  IC50: > 10 µM
Second compound 0.316 µM
  IC50: 0.787 µM
Second compound 1 µM
  IC50: 0.662 µM
Second compound 3.16 µM
  IC50: > 10 µM
Second compound 10 µM
  IC50: > 10 µM
[1]
  viability, T/C: 72.7%
[2]
  viability, T/C: 76.5%
[3]
  viability, T/C: 60.7%
[4]
  viability, T/C: 50.3%
[5]
  viability, T/C: 47.4%
[6]
  viability, T/C: 47.6%
[7]
  viability, T/C: 74.4%
[8]
  viability, T/C: 74.7%
[9]
  viability, T/C: 52.7%
[10]
  viability, T/C: 53.1%
[11]
  viability, T/C: 45.5%
[12]
  viability, T/C: 59%
[13]
  viability, T/C: 77.9%
[14]
  viability, T/C: 63.2%
[15]
  viability, T/C: 58.2%
[16]
  viability, T/C: 46.2%
[17]
  viability, T/C: 44.7%
[18]
  viability, T/C: 40.1%
[19]
  viability, T/C: 78%
[20]
  viability, T/C: 70.4%
[21]
  viability, T/C: 61.8%
[22]
  viability, T/C: 40.9%
[23]
  viability, T/C: 40%
[24]
  viability, T/C: 49.2%
[25]
  viability, T/C: 79.2%
[26]
  viability, T/C: 72.3%
[27]
  viability, T/C: 61.4%
[28]
  viability, T/C: 44.1%
[29]
  viability, T/C: 49.9%
[30]
  viability, T/C: 56.4%
[31]
  viability, T/C: 78.2%
[32]
  viability, T/C: 58.9%
[33]
  viability, T/C: 62.1%
[34]
  viability, T/C: 54%
[35]
  viability, T/C: 48.6%
[36]
  viability, T/C: 56%
